Legend:
[1] = humans; cited from earlier work
[2] = molecular target: T1, α1 GlyR (Rattus norvegicus, UniProt P07727); settings: homomeric α1GlyRs; cited from earlier work
T1 construct: expressed in transfected cells; host or cells: HEK293 (ATCC CRL-1573)
T1 sequence (P07727 29-457): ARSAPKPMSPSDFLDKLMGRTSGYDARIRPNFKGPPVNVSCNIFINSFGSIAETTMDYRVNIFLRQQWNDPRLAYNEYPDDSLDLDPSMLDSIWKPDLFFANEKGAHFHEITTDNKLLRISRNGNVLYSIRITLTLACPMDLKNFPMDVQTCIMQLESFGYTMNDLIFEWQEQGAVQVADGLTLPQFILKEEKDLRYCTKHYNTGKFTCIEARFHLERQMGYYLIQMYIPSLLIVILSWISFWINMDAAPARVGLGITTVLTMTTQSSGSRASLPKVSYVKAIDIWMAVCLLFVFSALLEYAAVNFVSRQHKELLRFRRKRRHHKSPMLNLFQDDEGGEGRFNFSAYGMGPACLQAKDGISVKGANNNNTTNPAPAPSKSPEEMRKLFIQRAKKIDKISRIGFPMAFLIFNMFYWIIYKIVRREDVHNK

[3] = molecular target: T2, α3 GlyR (Rattus norvegicus, UniProt P24524); settings: cited from earlier work
T2 construct: expressed in transfected cells; host or cells: HEK293 (ATCC CRL-1573)
T2 sequence (P24524 34-464): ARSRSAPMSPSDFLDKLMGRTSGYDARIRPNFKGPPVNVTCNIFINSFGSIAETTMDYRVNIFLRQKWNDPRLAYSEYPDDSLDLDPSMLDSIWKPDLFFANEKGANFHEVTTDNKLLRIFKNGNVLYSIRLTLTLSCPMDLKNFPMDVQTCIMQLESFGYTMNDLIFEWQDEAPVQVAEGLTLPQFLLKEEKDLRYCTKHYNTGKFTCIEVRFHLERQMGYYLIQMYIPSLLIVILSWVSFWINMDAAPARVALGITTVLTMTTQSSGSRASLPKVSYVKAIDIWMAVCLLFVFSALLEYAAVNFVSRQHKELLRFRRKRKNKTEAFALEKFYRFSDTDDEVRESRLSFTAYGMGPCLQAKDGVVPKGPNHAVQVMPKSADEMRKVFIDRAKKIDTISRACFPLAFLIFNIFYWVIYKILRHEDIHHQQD

[4] = molecular target: T3, α2 GlyR (Rattus norvegicus, UniProt P22771); settings: cited from earlier work
T3 construct: The cells were transfected with plasmids encoding the following proteins; expressed in transfected cells; host or cells: HEK293 (ATCC CRL-1573)
T3 sequence (P22771 28-452): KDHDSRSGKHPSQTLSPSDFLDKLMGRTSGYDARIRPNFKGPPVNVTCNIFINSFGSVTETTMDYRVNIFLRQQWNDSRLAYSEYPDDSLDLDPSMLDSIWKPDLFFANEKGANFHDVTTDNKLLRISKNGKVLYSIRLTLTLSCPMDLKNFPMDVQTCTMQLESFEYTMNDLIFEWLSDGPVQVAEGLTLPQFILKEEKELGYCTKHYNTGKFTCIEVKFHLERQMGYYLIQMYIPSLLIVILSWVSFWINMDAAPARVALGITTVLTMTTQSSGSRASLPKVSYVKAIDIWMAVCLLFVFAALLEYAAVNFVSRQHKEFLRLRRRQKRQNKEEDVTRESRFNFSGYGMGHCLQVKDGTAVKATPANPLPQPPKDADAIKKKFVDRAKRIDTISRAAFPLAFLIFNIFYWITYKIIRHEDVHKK

[5] = molecular target: T4, α1β GlyR (Rattus norvegicus, UniProt P07727+P20781); test: cell-based
T4 construct: The cells were transfected with plasmids encoding the following proteins; expressed in transfected cells; host or cells: HEK293 (ATCC CRL-1573)
Method: The cells were transfected with plasmids encoding the following proteins: (i). rat GlyR α (1, 2, 3) subunits alone or combined with rat β subunits (Uniprot Accession Numbers: Q546L7, P22771, P20236, P20781); and (ii). rat GABAAR α1 combined with rat β2 and γ2 subunits (Uniprot Accession Numbers: P62813, P63138, P18508). The EGFP expression was used as a marker of successful protein expression. The transfection was performed using Lipofectamine 2000 (Invitrogen, ThermoFisher, Carlsbad, CA, USA) using the fabricant protocol. The plasmids used to express GlyRs and GABAARs have been previously described. To track the successful expression of GlyR β subunits and the GABAA γ2 or β2 subunit, these proteins were subcloned in the pIRES2-EGFP vector. The transfection ratio to obtain β-containing GlyRs was 1:5 of α:β, while the expression of γ2-containing GABAA receptors was 1:2:5 of α:β:γ2 [14, 15]. Chimeric GlyRs were described in a previous report. Site directed mutagenesis was performed by Charm Gene Science Mutagenex LLC. (Cumming, GA, USA). All the constructs were checked by full-length sequencing (SNPSaurus, Eugene, OR, USA).
In brief, patch electrodes (3–4 MΩ) were pulled from borosilicate glasses in a PC-100 puller (Narishige, Tokyo, Japan); then, they were filled with an intracellular solution, which contained (in mM) 120 CsCl, 8 EGTA, 10 HEPES (pH 7.4), 4 MgCl2, 0.5 GTP, and 2 ATP. The extracellular solution contained (in mM) 140 NaCl, 5.4 KCl, 2.0 CaCl2, 1.0 MgCl2, 10 HEPES (pH 7.4), and 10 glucose. Whole-cell patch-clamp recordings were performed at −60 mV with an Axoclamp 200B (Molecular Devices, Sunnyvale, CA, USA) or with HEKA EPC-10 (HEKA Elektronik GmbH, Reutlingen, Germany) amplifiers. […] Brief (3–5 s) pulses of agonist together with alkaloids were applied to cells. Stock solutions of the alkaloids were prepared in high purity distilled water. Aliquots of these stock solutions were diluted in reservoirs containing extracellular solution. […] The concentration–response curve parameters for the alkaloid inhibition (IC50, nH, and the maximal current inhibition) were obtained from the fitted curve of normalized concentration–response data points to the equation Iagonist = Imax (agonist)nH/((agonist)nH + (EC50)nH). The IC50 curves are best-fit mean ± SE from pooled data. […] The inhibition constant (Ki) was calculated using the Cheng–Prusoff equation (Ki = IC50/((2 + ([Agonist]/EC50)^nH)^1/nH − 1). The concentration of agonist corresponds to the sub-saturating agonist concentration used to obtain the IC50 for each alkaloid on a given GlyR subtype.

T4 sequence (P20781 23-496, one chain of several): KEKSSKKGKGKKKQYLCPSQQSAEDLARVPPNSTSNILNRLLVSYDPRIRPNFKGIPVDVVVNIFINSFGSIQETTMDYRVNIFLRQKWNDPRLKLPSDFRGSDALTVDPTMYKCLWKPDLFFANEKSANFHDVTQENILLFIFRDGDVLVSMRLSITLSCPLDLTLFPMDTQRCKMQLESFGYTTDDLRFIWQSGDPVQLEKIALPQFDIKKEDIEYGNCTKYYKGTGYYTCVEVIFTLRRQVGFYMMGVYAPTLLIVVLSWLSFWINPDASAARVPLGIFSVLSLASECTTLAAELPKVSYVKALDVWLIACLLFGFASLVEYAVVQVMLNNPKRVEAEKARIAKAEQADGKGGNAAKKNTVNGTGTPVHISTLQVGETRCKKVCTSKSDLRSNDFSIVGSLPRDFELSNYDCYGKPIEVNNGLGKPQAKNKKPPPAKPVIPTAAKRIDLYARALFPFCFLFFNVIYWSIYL

SMILES: C=C[C@]12CN(C)[C@@H]3[C@H]4CO[C@H](C[C@H]41)[C@]1(C(=O)Nc4ccccc41)[C@@H]32 [gelsemine]
- lethal plasma concentrations [1]: 13 to 30 µg/mL
- modulation of currents (in words) [2]: bell-shape modulation
- modulation of currents (in words) [3]: concentration-dependent inhibition
- modulation of currents (in words) [4]: concentration-dependent inhibition

SMILES: C=C[C@@]12CN(C)[C@H]3C[C@]14C(=Nc1ccccc14)[C@H]1C[C@@H]2[C@@H]3CO1 [koumine]
- IC50 [5]: 32.5 ± 13.2 µM
- nH ([5]; Hill coefficient of inhibition curve): 0.9 ± 0.5
- Maximal Modulation ([5]; percentage change of glycine-evoked current): −90.8 ± 2.3%

Source: publication PMC10970644, “Molecular Pharmacology of Gelsemium Alkaloids on Inhibitory Receptors” (International Journal of Molecular Sciences, 2024)
